Tested on: L929 cells
Assay: Inhibition of TNF-α mediated cytolysis of L929 cells (Alamar Blue)
Type: cell-based, murine
Details: TNF-α 100 pg/mL, actinomycin D 1 μM; for % Inhibition at: 25 μM: 25 μM compound; for % Inhibition at: 50 μM: 50 μM compound; for % Inhibition at: 100μM: 100 μM compound
Description: L929 cultured murine fibroblasts cells were obtained from American Type Culture Collection (Manassas, Va.). Tissue culture reagents were from Invitrogen or Sigma-Aldrich. TNF-α and Actinomycin D were from Sigma-Aldrich. Alamar Blue reagents (Cell Titer Blue™) were from Promega. The test compounds I-1 through I-16, II-1 through II-8, and III-1 through III-3 were obtained commercially or can be prepared as described above. The test compounds were individually dissolved in dimethylsulfoxide (DMSO). The test compounds were maintained at 4° C. when not in use. Other reagents were high-purity (ACS-grade, HPLC-grade, MilliQ water, or similar).
Stock L929 cells were grown on tissue culture plastic in complete DMEM (Dulbecco's Modified Eagles Medium) supplemented with 10% FBS (Fetal Bovine Serum), NEAA (non-essential amino acids), and glutamine. L929 cells were plated using the same medium on 96-well tissue culture plates at high density (i.e., ˜4×10^4 cells/well, or similar) before use.
Approximately 20 h after plating, the L929 cells on 96-well plates were re-fed with fresh medium containing one of the test compounds in a concentration selected from 100 μM, 50 μM, 25 μM as a “pre-treatment.” Approximately 30-60 min later, samples were treated with an additional amount of test compound (in the same amount and at the same concentration as the pre-treatment) prepared in medium containing TNF-α (200 pg/mL), and actinomycin D (2 μM). The final concentration of TNF-α in assays was 100 pg/mL. The final concentration of actinomycin D in assays was 1 μM. The plates were incubated for an additional 22-23 h, the Alamar Blue assay reagents were added and metabolic cell viability was determined from reduction of a fluorogenic Alamar Blue derivative.
The temperature was maintained at 37° C. with 5% CO2 and humidified. The metabolic viability was measured 1-2 h after addition of assay reagents/Alamar Blue derivative using TECAN SaFire fluorescence plate reader (Tecan Group Ltd., Maennedorf, Switzerland).
Inhibition of TNF-α induced cytolysis by a test compound (X) at a given concentration (y) was calculated as follows: […]

| SMILES | % Inhibition at: 25 μM | % Inhibition at: 50 μM | % Inhibition at: 100μM |
| --- | --- | --- | --- |
| CN(C)c1ccc(C(O)(c2ccc(N(C)C)cc2)c2ccc(N(C)C)cc2)cc1 [Compound I-1, 1,1,1-Tris-(4-dimethylaminophenyl)methanol] | 44.0% | 63.3% | 40.9% |
| CC(c1ccc(OCC(=O)[O-])cc1)(c1ccc(OCC(=O)[O-])cc1)c1ccc(OCC(=O)[O-])cc1.[Na+].[Na+].[Na+] [Compound I-3, 1,1,1-Tris-(4-carboxymethoxyphenyl)ethane, trisodium salt] | 23.0% | 17.7% | 12.4% |
| COC(=O)COc1ccc(C(C)(c2ccc(OCC(=O)OC)cc2)c2ccc(OCC(=O)OC)cc2)cc1 [Compound I-4, 1,1,1-Tris-(4-methoxycarbonylmethoxyphenyl)ethane] | 18.4% | 27.9% | −11.6% |
| COc1ccc(C(C(=O)[O-])(c2ccc(OC)cc2)c2ccc(OC)cc2)cc1.[Na+] [Compound I-5, Sodium 1,1,1-tris-(4-methoxyphenyl)acetate] | 1.7% | 5.0% | 12.1% |
| COc1ccc(C(O)(c2ccc(OC)cc2)c2ccc(OC)cc2)cc1 [Compound I-6, 1,1,1-Tris-(4-methoxyphenyl)methanol] | 12.0% | 25.9% | 32.5% |
| COc1ccc([C+](c2ccc(OC)cc2)c2ccc(OC)cc2)cc1 [Compound I-7, 4,4′,4″-Trimethoxytrityl tetrafluoroborate] | 15.1% | 30.2% | 25.9% |
| COc1ccc(C(C(=O)O)(c2ccc(OC)cc2)c2ccc(OC)cc2)cc1 [Compound I-8, 1,1,1-Tris-(4-methoxyphenyl)acetic acid] | 2.7% | 6.9% | 18.4% |
| CC(=O)Oc1ccc(C(C)(c2ccccc2)c2ccc(OC(C)=O)cc2)cc1 [Compound I-10, 1,1-Bis-(4-acetoxyphenyl)-1-phenyl-ethane] | 20.7% | 46.6% | 71.9% |
| COC(=O)COc1ccc(C(C)(c2ccc(O)cc2)c2ccc(O)cc2)cc1 [Compound I-11, 1,1-Bis-(4-hydroxyphenyl)-1-(4-methoxycarbonylmethoxyphenyl)ethane] | 13.9% | 36.7% | 14.8% |
| CC(c1ccc(O)cc1)(c1ccc(OCC(=O)O)cc1)c1ccc(OCC(=O)O)cc1.[Na+].[Na+].[Na+] [Compound I-12, 1,1-Bis-(4-carboxymethoxy-phenyl)-1-(4-hydroxyphenyl)ethane, trisodium salt] | 14.5% | 16.9% | 14.2% |
| CC(c1ccc(OC(=O)CCl)cc1)(c1ccc(OC(=O)CCl)cc1)c1ccc(OC(=O)CCl)cc1 [Compound I-13, 1,1,1-Tris-(4-chloroacetoxyphenyl)ethane] | 35.4% | 72.2% | 38.9% |
| COC(=O)COc1ccc(C(C)(c2ccc(OCC(=O)OC)cc2)c2ccc(OC(C)=O)cc2)cc1 [Compound I-14, 1-(4-Acetoxy-phenyl)-1,1-bis-(4-methoxycarbonylmethoxyphenyl)ethane] | 13.4% | 30.2% | 45.3% |
| CC(c1ccccc1)(c1ccc(OC(=O)CCl)cc1)c1ccc(OC(=O)CCl)cc1 [Compound I-15, 1,1-Bis-(4-chloroacetoxyphenyl)-1-phenylethane] | 29.7% | 73.8% | −19.8% |
| CC(=O)Oc1ccc(C2(c3ccc(OC(C)=O)cc3)C(=O)Nc3ccccc32)cc1 [Compound I-16, 3,3-Bis[4-(acetyloxy)phenyl]-1,3-dihydro-2H-indol-2-one] | 4.3% | 11.5% | 17.1% |
| CN(C)c1ccc(C(O)(c2ccccc2)c2ccc(N(C)C)cc2)cc1 [Compound I-17, 1,1-Bis(4-dimethylaminophenyl)-1-phenyl-methanol] | −16.0% | −17.0% | −17.9% |
| Cc1cc(C(C)(c2ccc(O)cc2)c2cc(C)c(N)c(C)c2)cc(C)c1N [Compound I-18, 1,1-Bis(4-amino-3,5-dimethylphenyl)-1-(4-hydroxyphenyl)-ethane] | 22.6% | 36.6% | 53.8% |
| O=C1OC2(c3ccc(Cl)cc3Oc3cc(Cl)ccc32)c2ccccc21 [II-1, 3′,6′-Dichlorofluorescein] | 20.7% | 8.8% | 7.6% |
| CC(=O)Oc1ccc2c(c1)Oc1cc(OC(C)=O)ccc1C21OC(=O)c2ccccc21 [II-2, 3′,6′-Fluorescein diacetate] | 25.4% | 23.5% | 26.0% |
| O=C(O)c1ccccc1C1c2ccc(Cl)cc2Oc2cc(Cl)ccc21 [II-3, 2-(3,6-Dichloro-9H-xanthen-9-yl)-benzoic acid] | 36.2% | 45.6% | 52.4% |
| O=C(O)c1ccccc1C1c2ccc(O)cc2Oc2cc(O)ccc21 [II-4, 2-(3,6-Dihydroxy-9H-xanthen-9-yl)-benzoic acid] | 33.3% | 23.6% | 23.2% |
| O=C(O)c1ccccc1C1c2ccc(O)cc2Oc2cc(O)ccc21 [II-5, 2-Hydroxy-1,1-bis-hydroxymethyl-ethyl-ammonium; 2-(3,6-dihydroxy-9H-xanthen-9-yl)-benzoate] | 25.1% | 16.3% | 21.5% |
| NC(=O)c1ccccc1C1c2ccc(Cl)cc2Oc2cc(Cl)ccc21 [II-6, 2-(3,6-Dichloro-9H-xanthen-9-yl)-benzamide] | 43.3% | −6.1% | −21.7% |
| O=C([O-])c1ccccc1C(c1ccc(O)cc1)c1ccc(O)cc1.[K+] [II-7, Potassium 2-[bis-(4-hydroxyphenyl)-methyl]-benzoate] | 22.5% | 19.1% | 13.2% |
| O=C([O-])c1ccccc1C1c2ccc(O)cc2Oc2cc(O)ccc21.[K+] [II-8, Potassium 2-(3,6-dihydroxy-9H-xanthen-9-yl)-benzoate] | 23.6% | 24.7% | 25.6% |
| CC(=O)Oc1cc2c(cc1Cl)C1(OC(=O)c3ccccc31)c1cc(Cl)c(OC(C)=O)cc1O2 [II-9, 2′,7′-Dichlorofluorescein diacetate] | 6.3% | 10.5% | 22.0% |
| O=[N+]([O-])c1cccc(NN=C(c2ccc(O)cc2)c2ccc(O)cc2)c1 [III-1, N-(4,4′-Dihydroxybenzhydrylidene)-N′-(3-nitrophenyl)hydrazine] | 33.2% | 42.5% | −20.3% |
| CC(=O)Oc1ccc(C(=NNc2cccc([N+](=O)[O-])c2)c2ccc(OC(C)=O)cc2)cc1 [III-2, 4,4′-Diacetoxybenzophenone-3-nitrophenylhydrazone] | 26.9% | 42.0% | −19.8% |
| O=[N+]([O-])c1cccc(NN=C(c2ccc(Cl)cc2)c2ccc(Cl)cc2)c1 [III-3, N-(4,4′-Dichlorobenzhydrylidene)-N-(3-nitrophenyl)hydrazine] | 6.6% | 3.4% | 8.1% |

— patent US9096607B2, “Tumor necrosis factor inhibitors” (THE TRUSTEES OF THE UNIVERSITY OF PENNSYLVANIA, priority 2005, dated 2015)
